Consider 4 compounds from ChEMBL document CHEMBL1201862, “PubChem BioAssay data set” (2004).

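Five concentrations, 48 hours, 96-well plates. At the GI50, growth is halved.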 Activity calls are given as the source filed them. Rule as the data show it: active = GI50 up to about 1.1 µM and inactive = higher. Some results are limits rather than exact numbers.

Some test systems named below: A498; ACHN; EKVX; HOP-62; Hs-578T; IGROV-1; K562; MDA-MB-435; MOLT-4; NCI/ADR-RES; OVCAR-4; RPMI-8226; RXF 393; SF-295; SK-MEL-28; SK-MEL-5; SNB-75; SR; U-251; UO-31.
Holding throughout (assay): DTP human tumour cell line panel, 48 h

In the case of `C=C1C2CC[C@@](C)(O)C2[C@H]2OC(=O)C(=C)[C@@H]2C[C@H]1O` (stereo not given in full), the GI50 in the test with A498 is 41 µM (inactive); in the test with ACHN, 10.8 µM (inactive); in the test on EKVX it was 29 µM (inactive); in the test with HOP-62, 30.7 µM (inactive); in the test on Hs-578T, 23.4 µM (inactive); in the test with IGROV-1, 28.4 µM (inactive). Also, the GI50 was 28.6 µM (inactive) with K562; 26 µM (inactive) in the test on MDA-MB-435; 14.7 µM (inactive) with MOLT-4; 18.8 µM (inactive) in the test on NCI/ADR-RES; 14.9 µM (inactive) with OVCAR-4; 13.1 µM (inactive) in the test on RPMI-8226. Further, the GI50 with RXF 393 was 22.1 µM (inactive); with SF-295, 54.6 µM (inactive); in the test on SK-MEL-28 it was 26 µM (inactive); in the test on SK-MEL-5, 8.38 µM (inactive); in the test with SNB-75 it was 43.4 µM (inactive); with SR, 17.1 µM (inactive). Moreover, the GI50 in the test with U-251 is 31.9 µM (inactive); in the test with UO-31 it was 13.6 µM (inactive).
Regarding `C=C1C(=O)OC2C1CCC(=C)C1CC(O)C(=C)C12` (stereo not given), the GI50 in the test on A498 is 20 µM (inactive); in the test on ACHN, 3.18 µM (inactive); in the test with EKVX it was 7.16 µM (inactive); in the test on HOP-62, 21.2 µM (inactive); with Hs-578T it was 36.9 µM (inactive); in the test on IGROV-1, 14 µM (inactive). For the same compound, the GI50 in the test on K562 is 5.09 µM (inactive); with MDA-MB-435 it was 19.5 µM (inactive); in the test on MOLT-4 it was 8.38 µM (inactive); with NCI/ADR-RES it was 24 µM (inactive); with OVCAR-4, 16.2 µM (inactive); in the test with RPMI-8226 it was 5.78 µM (inactive). Also, the GI50 is 13.1 µM (inactive) with RXF 393; 38.5 µM (inactive) in the test with SF-295; 14.4 µM (inactive) in the test on SK-MEL-28; 14.3 µM (inactive) in the test with SK-MEL-5; 19.7 µM (inactive) in the test with SNB-75; 3.22 µM (inactive) in the test on SR. The results for the GI50 in the test with U-251 and in the test on UO-31 were 23.3 µM (inactive) and 15.3 µM (inactive), respectively.
As for `C[n+]1c(-c2ccc(/C=N/NC(=O)c3ccc(C(=O)N/N=C/c4ccc(-c5cn6ccccc6[n+]5C)cc4)cc3)cc2)cn2ccccc21`, the GI50 in the test on A498 is 29.2 µM (inactive); in the test on ACHN, > 73.3 µM (inactive); with EKVX, > 100 µM (inactive); in the test on HOP-62, > 100 µM (inactive); in the test on Hs-578T, > 100 µM (inactive); in the test with IGROV-1, > 100 µM (inactive). Also, the GI50 in the test on K562 was > 100 µM (inactive); with MDA-MB-435 it was > 75.7 µM (inactive); with MOLT-4, > 100 µM (inactive); in the test with NCI/ADR-RES, > 100 µM (inactive); with OVCAR-4, > 100 µM (inactive); in the test with RPMI-8226, > 100 µM (inactive). Further, the GI50 in the test on RXF 393 was > 61.9 µM (inactive); in the test with SF-295 it was > 100 µM (inactive); in the test on SK-MEL-28, > 100 µM (inactive); in the test on SK-MEL-5 it was > 67.9 µM (inactive); in the test on SNB-75, > 100 µM (inactive); with SR, > 100 µM (inactive). Moreover, the GI50 was > 100 µM (inactive) in the test on U-251 and > 59.8 µM (inactive) with UO-31.
Regarding `C[C@]12CC[C@H](O)C[C@H]1CC[C@@H]1[C@@H]2CC[C@]2(C)[C@@H](C3=CC(=O)OC3)CC[C@]12O` [DIGITOXIGENIN], the concentration for 50% growth inhibition (GI50) in the test on A498 was 0.125 µM (active); with ACHN, < 0.0125 µM (active); in the test with EKVX, 0.0873 µM (active); in the test with HOP-62, 0.04 µM (active); with Hs-578T, 0.0673 µM (active); in the test on IGROV-1, 0.0668 µM (active). The GI50 in the test with K562 was 0.0536 µM (active); in the test with MDA-MB-435, 0.217 µM (active); in the test with MOLT-4 it was < 0.01 µM (active); in the test with NCI/ADR-RES it was 0.115 µM (active); in the test with OVCAR-4, 0.0662 µM (active); in the test with RPMI-8226 it was 0.0757 µM (active). The concentration for 50% growth inhibition (GI50) in the test on RXF 393 was 0.0144 µM (active); with SF-295 it was 0.0473 µM (active); with SK-MEL-28, 0.569 µM (active); with SK-MEL-5, 0.0447 µM (active); in the test on SNB-75, 0.299 µM (active); in the test on SR, 0.0531 µM (active). In addition, the figures for the GI50 with U-251 and in the test on UO-31 were 0.199 µM (active) and 0.117 µM (active), respectively.

By GI50 is commonly meant the concentration that inhibits growth by half.
